Laboratory results published in patent US10221161B2, “Inhibitors of plasma kallikrein” (Kalvista Pharmaceuticals Limited, priority 2013, dated 2019).
pIC50: −log10 of the molar value.

Key:
[1] = biological target: Human plasma kallikrein (Homo sapiens (Human), UniProt P03952); assay: Determination of the IC50 for plasma kallikrein (fluorogenic substrate H-DPro-Phe-Arg-AFC); type: biochemical; conditions: 37° C., read-out: IC50 (human PKal)
Protocol: Determination of the IC50 Plasma Kallikrein Plasma kallikrein inhibitory activity in vitro was determined using standard published methods (see e.g. Johansen et al., Int. J. Tiss. […] Shori et al., Biochem. Pharmacol., 1992, 43, 1209; Stürzebecher et al., Biol. Chem. Hoppe-Seyler, 1992, 373, 1025). Human plasma kallikrein (Protogen) was incubated at 37° C. with the fluorogenic substrate […] and various concentrations of the test compound.

[2] = biological target: Human KLK1 (Homo sapiens (Human), UniProt P06870); assay: Determination of the IC50 for KLK1 (fluorogenic substrate H-DVal-Leu-Arg-AFC); type: biochemical; conditions: human KLK1, 37° C.
Sequence of Human KLK1 (P06870 25-262): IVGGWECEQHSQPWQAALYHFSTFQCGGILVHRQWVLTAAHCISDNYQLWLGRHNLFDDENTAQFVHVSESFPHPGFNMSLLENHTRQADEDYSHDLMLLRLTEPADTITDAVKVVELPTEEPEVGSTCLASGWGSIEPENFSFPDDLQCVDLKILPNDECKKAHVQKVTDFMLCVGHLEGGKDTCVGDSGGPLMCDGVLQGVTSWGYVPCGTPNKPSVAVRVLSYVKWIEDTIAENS
Method in brief: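 Inhibition of human KLK1 (Callbiochem) was measured in vitro following standard published methods. The enzyme was incubated at 37° C. with the fluorogenic substrate H-DVal-Leu-Arg-AFC across a range of test compound concentrations. Residual activity, taken as the initial reaction rate, was followed by […], and IC50 values were calculated.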

Sequence of Human plasma kallikrein (P03952 391-638 limits assumed): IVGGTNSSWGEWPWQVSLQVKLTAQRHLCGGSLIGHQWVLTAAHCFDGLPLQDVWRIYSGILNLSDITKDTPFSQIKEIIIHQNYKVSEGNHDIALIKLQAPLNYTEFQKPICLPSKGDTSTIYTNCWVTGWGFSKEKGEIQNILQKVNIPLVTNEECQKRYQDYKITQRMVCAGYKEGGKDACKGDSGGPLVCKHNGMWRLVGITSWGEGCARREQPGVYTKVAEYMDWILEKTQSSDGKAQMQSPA
Sequence of Human plasma kallikrein (P03952 20-390 partner limits assumed): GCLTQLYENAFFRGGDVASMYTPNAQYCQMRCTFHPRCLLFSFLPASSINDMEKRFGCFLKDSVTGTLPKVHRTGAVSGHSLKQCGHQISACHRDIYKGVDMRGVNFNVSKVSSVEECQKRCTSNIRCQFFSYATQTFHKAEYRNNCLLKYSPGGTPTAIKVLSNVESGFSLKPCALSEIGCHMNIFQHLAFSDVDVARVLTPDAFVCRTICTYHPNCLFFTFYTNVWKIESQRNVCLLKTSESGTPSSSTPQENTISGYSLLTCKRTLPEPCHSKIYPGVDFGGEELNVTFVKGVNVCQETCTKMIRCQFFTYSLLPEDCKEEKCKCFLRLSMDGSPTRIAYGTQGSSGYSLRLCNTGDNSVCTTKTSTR

| Compound | pIC50 [1] | pIC50 [2] |
| --- | --- | --- |
| COc1ccccc1Cc1cncc(C(=O)NCc2ccc3c(N)nccc3c2)c1 [Example 29, N-[(1-Aminoisoquinolin-6-yl)methyl]-5-[(2-methoxyphenyl)methyl]pyridine-3-carboxamide] | 4.69 | 5.13 |
| COc1ncc(Cc2ccc3nc(C)ccc3c2)cc1C(=O)NCc1ccc2c(N)nccc2c1 [Example 19, N-[(1-Aminoisoquinolin-6-yl)methyl]-2-methoxy-5-[(2-methylquinolin-6-yl)methyl]pyridine-3-carboxamide] | 6.36 | 5.92 |
| COc1ccc(Cc2cncc(C(=O)NCc3ccc4c(N)nccc4c3)c2)cc1 [Example 26, N-[(1-Aminoisoquinolin-6-yl)methyl]-5-[(4-methoxyphenyl)methyl]pyridine-3-carboxamide] | 6.03 | < 4.40 |
| COC1CCN(c2ccc(Cc3cncc(C(=O)NCc4ccc5c(N)nccc5c4)c3)cn2)C1 (stereo not shown) [Example 62, N-[(1-Aminoisoquinolin-6-yl)methyl]-5-{[6-(3-methoxypyrrolidin-1-yl)pyridin-3-yl]methyl}pyridine-3-carboxamide] | 6.59 | 5.05 |
| Cc1cnn(Cc2ccc(Cc3cncc(C(=O)NCc4c(C)cc(CN)cc4C)c3)cc2)c1 [Example 94, N-{[4-(Aminomethyl)-2,6-dimethylphenyl]methyl}-5-({4-[(4-methylpyrazol-1-yl)methyl]phenyl}methyl)pyridine-3-carboxamide] | 8.13 | < 4.40 |
| Cc1cnn(Cc2ccc(Cc3cncc(C(=O)NCc4ccc(CN)c(F)c4)c3)cc2)c1 [Example 96, N-{[4-(Aminomethyl)-3-fluorophenyl]methyl}-5-({4-[(4-methylpyrazol-1-yl)methyl]phenyl}methyl)pyridine-3-carboxamide] | 6.44 | < 4.40 |
| COCCOc1ccc(Cc2cncc(C(=O)NCc3ccc4c(N)nccc4c3)c2)cc1 [Example 34, N-[(1-Aminoisoquinolin-6-yl)methyl]-5-{[4-(2-methoxyethoxy)phenyl]methyl}pyridine-3-carboxamide] | 5.99 | < 4.40 |
| Nc1nccc2cc(CNC(=O)c3cncc(Cc4ccccc4)c3)ccc12 [Example 23, N-[(1-Aminoisoquinolin-6-yl)methyl]-5-benzylpyridine-3-carboxamide] | 4.40 | 4.49 |
| Cc1cnn(Cc2ccc(Cc3cncc(C(=O)NCc4ccc5c(N)nccc5c4)n3)cc2)c1 [Example 9, N-[(1-Aminoisoquinolin-6-yl)methyl]-6-({4-[(4-methylpyrazol-1-yl)methyl]phenyl}methyl)pyrazine-2-carboxamide] | 7.51 | 5.27 |

Results, then the compound that gave them:

| pIC50 [1] | pIC50 [2] | Compound |
| --- | --- | --- |
| 6.97 | 5.07 | CN1CCOc2cc(Cc3cncc(C(=O)NCc4ccc5c(N)nccc5c4)c3)ccc21 [Example 38, N-[(1-Aminoisoquinolin-6-yl)methyl]-5-[(4-methyl-2,3-dihydro-1,4-benzoxazin-7-yl)methyl]pyridine-3-carboxamide] |
| 6.63 | 5.01 | COC1CCN(c2cc(Cc3cncc(C(=O)NCc4ccc5c(N)nccc5c4)c3)ccn2)C1 (stereo not shown) [Example 88, N-[(1-Aminoisoquinolin-6-yl)methyl]-5-{[2-(3-methoxypyrrolidin-1-yl)pyridin-4-yl]methyl}pyridine-3-carboxamide] |
| 6.84 | 5.38 | Nc1nccc2cc(CNC(=O)c3cncc(Cc4ccc5ncccc5c4)c3)ccc12 [Example 31, N-[(1-Aminoisoquinolin-6-yl)methyl]-5-(quinolin-6-ylmethyl)pyridine-3-carboxamide] |
| 7.08 | < 5.00 | CC1(C)CCN(c2ccc(Cc3cncc(C(=O)NCc4ccc5c(N)nccc5c4)c3)cn2)C1 [Example 74, N-[(1-Aminoisoquinolin-6-yl)methyl]-5-{[6-(3,3-dimethylpyrrolidin-1-yl)pyridin-3-yl]methyl}pyridine-3-carboxamide] |
| 6.80 | < 4.40 | Cc1cnn(Cc2ccc(Cc3ccnc(C(=O)NCc4ccc5c(N)nccc5c4)c3)cc2)c1 [Example 3, N-[(1-Aminoisoquinolin-6-yl)methyl]-4-({4-[(4-methylpyrazol-1-yl)methyl]phenyl}methyl)pyridine-2-carboxamide] |
| 6.24 | 5.61 | CN(C)[C@@H]1CCN(c2ccc(Cc3cncc(C(=O)NCc4ccc5c(N)nccc5c4)c3)cn2)C1 (stereo in doubt) [Example 69, N-[(1-Aminoisoquinolin-6-yl)methyl]-5-({6-[3-(dimethylamino)pyrrolidin-1-yl]pyridin-3-yl}methyl)pyridine-3-carboxamide] |
| 6.81 | 5.15 | CC1CCCN1c1cc(Cc2cncc(C(=O)NCc3ccc4c(N)nccc4c3)c2)ccn1 (stereo not shown) [Example 79, N-[(1-Aminoisoquinolin-6-yl)methyl]-5-{[2-(2-methylpyrrolidin-1-yl)pyridin-4-yl]methyl}pyridine-3-carboxamide] |
| 5.09 | < 5.00 | Nc1nccc2cc(CNC(=O)c3cncc(CN4CCN(CCc5ccccc5)CC4)c3)ccc12 [Example 51, N-[(1-Aminoisoquinolin-6-yl)methyl]-5-{[4-(2-phenylethyl)piperazin-1-yl]methyl}pyridine-3-carboxamide] |
| 6.98 | 5.32 | Nc1nccc2cc(CNC(=O)c3cncc(Cc4ccnc(N5CCCC5CO)c4)c3)ccc12 (stereo not shown) [Example 89, N-[(1-Aminoisoquinolin-6-yl)methyl]-5-({2-[2-(hydroxymethyl)pyrrolidin-1-yl]pyridin-4-yl}methyl)pyridine-3-carboxamide] |
| 5.74 | 4.61 | COc1ccccc1CN1CCN(Cc2cncc(C(=O)NCc3ccc4c(N)nccc4c3)c2)CC1 [Example 42, N-[(1-Aminoisoquinolin-6-yl)methyl]-5-({4-[(2-methoxyphenyl)methyl]piperazin-1-yl}methyl)pyridine-3-carboxamide] |
| 7.13 | 5.29 | Nc1nccc2cc(CNC(=O)c3cncc(Cc4ccc(N5CCCC5CO)nc4)c3)ccc12 (stereo not shown) [Example 67, N-[(1-Aminoisoquinolin-6-yl)methyl]-5-({6-[2-(hydroxymethyl)pyrrolidin-1-yl]pyridin-3-yl}methyl)pyridine-3-carboxamide] |
